Source: US20150204836A1, “SOLUBLE METAL SENSOR COMPOUNDS AND METHODS FOR MAKING AND USING THE SAME” (UNIVERSITY OF UTAH RESEARHC FOUNDATION, priority 2012, published 2015)
In brackets after ≈: the same amount, converted by molar mass.

Columns and labels:
[1] = Linear fluorescence detection response and detection limit for Hg^2+; conditions: 0.3 μM of Compound 1; corresponding to a 1% decrease of fluorescence intensity
Experimental: Linear detection response for Hg^2+ was determined/established for several concentrations of Compound 1. A linear detection response of Hg^2+ in the range 0 to 18 ppb for 0.3 μM of Compound 1 and a detection limit of 0.4 ppb for Hg^2+, corresponding to a 1% decrease of fluorescence intensity was determined (FIG. 2A).

[2] = Storage stability of metal sensor solution in HDPE/LDPE squeeze bottles; assay type: physicochemical; conditions: 7.4 μM in 50% glycerol-water, on shelf in room and outside in shade
Experimental: High density polyethylene (HDPE) and low density polyethylene (LDPE) squeeze bottles were used to store metal sensor solutions (7.4 μM Compound 1). One pair of HDPE and LDPE bottles was stored on shelf in room, and the other pair of bottles was stored outside in shade. Compound 1 is very stable in 50% glycerol-water without obvious change of absorbance and fluorescence spectra at least for 6 weeks.

[3] = pH tuning study, selectivity for Hg^2+ over 11 other metal ions (fluorescence quenching); conditions: 1.0 μM Compound 1, 11 metal ions each 5 μM, 2.0 μM Hg^2+, pH 4, 5, 6, 7
Experimental: The selectivity of the sensor Compound 1 for Hg^2+ over environmentally relevant alkali, alkaline earth and transition metal ions (K^+, […], Mg^2+, Ca^2+, Ba^2+, Zn^2+, Fe^2+, Ni^2+, Cd^2+, Pb^2+, Cu^2+) was investigated in different pH solution pH=4, 5, NaOAc 0.02M buffer, pH=6, PBS 0.02M buffer, pH 7 water (panel A pH 4.0, panel B pH 5.0, panel C pH 6.0, panel D pH 7.0). Fluorescence spectra of a 1.0 μM Compound 1 solution in the absence (A line) and presence (B line) of a mixture of all 11 metal ions (each 5 μM).

[4] = Temperature effect on fluorescence quenching by Hg^2+; conditions: one point assay, 1.0 μM Compound 1, 2.0 μM Hg^2+, 596 nm, varying temperatures
Text: New sensors could be used to test water sources in quite different locations, at different seasons, and from diverse water sources.

[5] = Solubility in various solvents; assay type: physicochemical
Experimental: Compound 1 is a dark red color solid with solubility in water about 30 μM, much higher than detection concentration (0.3˜5 μM) that is commonly used in fluorometer or portable detector. Various solvents have been tested in the following table. For transferring Compound 1 as aliquots, ethanol-dichloromethane (DCM) (5:1) is a good solvent giving good solubility and easy evaporation of solvent.

[6] = Spectral properties (absorbance, extinction coefficient, emission) in various solvents; assay type: physicochemical

## Cc1cn([C@@H]2C[C@@H](O)[C@H](CNC(=O)CCN3C(=O)c4cc(Oc5cccnc5)c5c6c(Oc7cccnc7)cc7c8c(cc(Oc9cccnc9)c(c9c(Oc%10cccnc%10)cc(c4c59)C3=O)c86)C(=O)N(CCC(=O)NC[C@H]3O[C@@H](n4cc(C)c(=O)[nH]c4=O)C[C@@H]3O)C7=O)O2)c(=O)[nH]c1=O [Compound 1, N-(((2R,3S,5R)-3-hydroxy-5-(5-methyl-2,4-dioxo-3,4-dihydropyrimidin-1(2H)-yl)tetrahydrofuran-2-yl)methyl)-3-(9-(3-((((2S,3R,5S)-3-hydroxy-5-(5-methyl-2,4-dioxo-3,4-dihydropyrimidin-1(2H)-yl)tetrahydrofuran-2-yl)methyl)amino)-3-oxopropyl)-1,3,8,10-tetraoxo-5,6,12,13-tetrakis(pyridin-3-yloxy)-9,10-dihydroanthra[2,1,9-def:6,5,10-d′e′f′]diisoquinolin-2(1H,3H,8H)-yl)propanamide]
[1]
  detection limit for Hg^2+: 0.4 ppb
[2]
  stable without obvious change of absorbance and fluorescence spectra: ≥ 6 weeks
[3]
  fluorescence response on addition of Hg^2+ to mixture of 11 metal ions: fluorescence quenching
[4]
  temperature effect on quenching efficiency: small, but potentially significant, effect
[5]; 15% glycerol in water, aqueous with cosolvent or surfactant or cyclodextrin, 15% Glycerol-H2O
  solubility: ~50 µM (≈ 67.7 µg/mL)
[5]; 30% glycerol in water, aqueous with cosolvent or surfactant or cyclodextrin, 30% Glycerol-H2O
  solubility: > 86 µM
[5]; 30% propylene glycol in water, aqueous with cosolvent or surfactant or cyclodextrin, 30% Propylene glycol-H2O
  solubility: > 86 µM
[5]; 50% glycerol in water, aqueous with cosolvent or surfactant or cyclodextrin, 50% Glycerol-H2O
  solubility: > 86 µM
[5]; 50% propylene glycol in water, aqueous with cosolvent or surfactant or cyclodextrin, 50% Propylene glycol-H2O
  solubility: > 86 µM
[5]; DMF, organic solvent or mixture
  solubility: > 200 µM
[5]; DMF-water (7:3), organic solvent or mixture, DMF-H2O (7:3)
  solubility: > 200 µM
[5]; ethanol, organic solvent or mixture
  solubility: ~100 µM (≈ 135 µg/mL)
[5]; ethanol-dichloromethane (5:1), organic solvent or mixture, Ethanol-DCM (5:1)
  solubility: > 342 µM
[5]; isopropanol, organic solvent or mixture
  solubility: > 86 µM
[5]; water
  solubility: ~30 µM (≈ 40.6 µg/mL)
[6]; 15% Glycerol-H2O
  ε (extinction coefficient): 15000 M⁻¹ cm⁻¹
  λmax,abs: 564 nm
  λmax,flu: 598 nm
[6]; 30% Glycerol-H2O
  ε (extinction coefficient): 16970 M⁻¹ cm⁻¹
  λmax,abs: 566 nm
  λmax,flu: 598 nm
[6]; 50% Glycerol-H2O
  ε (extinction coefficient): 16330 M⁻¹ cm⁻¹
  λmax,abs: 565 nm
  λmax,flu: 598 nm
[6]; DMF-H2O (7:3)
  ε (extinction coefficient): 18900 M⁻¹ cm⁻¹
  λmax,abs: 561 nm
  λmax,flu: 595 nm
[6]; Ethanol
  ε (extinction coefficient): 12830 M⁻¹ cm⁻¹
  λmax,abs: 557 nm
  λmax,flu: 594 nm
[6]; Ethanol-DCM (5:1)
  ε (extinction coefficient): 16000 M⁻¹ cm⁻¹
  λmax,abs: 558 nm
  λmax,flu: 595 nm
[6]; H2O
  ε (extinction coefficient): 12375 M⁻¹ cm⁻¹
  λmax,abs: 563 nm
  λmax,flu: 595 nm
[6]; Isopropanol
  ε (extinction coefficient): 15200 M⁻¹ cm⁻¹
  λmax,abs: 561 nm
  λmax,flu: 594 nm
